Assay results from PMC12888861, “Antibacterial activity of enmetazobactam against Acinetobacter spp.: a molecular dissection of mechanism of action and resistance determinants” (Antimicrobial Agents and Chemotherapy, 2025).
Converted amounts (≈) assume the structure as drawn.

Key:
[1] = test system: carbapenem-susceptible A. baumannii isolates (n = 54); test: MIC, broth microdilution (EUCAST), carbapenem-susceptible A. baumannii isolates; assay type: cell-based, Acinetobacter baumannii
Summary of the method: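 Broth microdilution per EUCAST v.15 guidelines on clinical Acinetobacter isolates from a Spanish 2020 multicenter collection; enmetazobactam also tested alone. A. baumannii ATCC 19606 served as reference strain, in duplicate assays.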

[2] = test system: A. baumannii ATCC 19606 cells; test: Cell morphology assay, bright-field microscopy; assay type: cell-based, Acinetobacter baumannii; conditions: A. baumannii ATCC 19606, overnight exposure at 1× MIC
Description: In order to confirm the involvement of PBPs as targets of enmetazobactam, cell morphology assays involving exposure to enmetazobactam and sulbactam were performed following the methodology described in Supplementary materials and methods.
To confirm the involvement of PBPs as targets of enmetazobactam, the cellular morphology of A. baumannii ATCC 19606 reference strain was analyzed after exposure to the compound at different concentrations. Bright-field microscopy was used to monitor the cell morphology. […] For microscopic visualization, aliquots of each sample were obtained, stained with crystal violet solution and observed using an Olympus BX61 microscope (Olympus).
Changes in cell morphology were determined on the basis of alterations in septal integrity, abnormal elongation, spheroplast formation and filamentation, patterns previously associated with the selective inhibition of PBP1, PBP2 and PBP3 in Gram-negative bacilli. Specifically, PBP1 inhibition has been linked to cell lysis, PBP2 inhibition has been linked to spherification, and PBP3 inhibition to defective cell division and filament formation (1, 2). The results were qualitatively compared across different treatments to infer the potential selectivity of enmetazobactam for specific PBPs.

[3] = Acinetobacter baumannii, carbapenem-susceptible A. baumannii isolates (n = 54), ETZ fixed 8 mg/L in combinations

CC1(C)[C@H](C(=O)O)N2C(=O)C[C@H]2S1(=O)=O [sulbactam]
MIC distribution 0.12 [1]: 0
MIC distribution 0.25 [1]: 0
MIC distribution 0.5 [1]: 27.8
MIC distribution 1 [1]: 79.6
MIC distribution 2 [1]: 96.3
MIC distribution 4 [1]: 100
MIC distribution 8 [1]: 100
MIC distribution 16 [1]: 100
MIC distribution ≤0.06 [1]: 0
MIC distribution ≥32 [1]: 100
MIC ([1]; Acinetobacter baumannii, MBC set, isolate Ab1, A. baumannii ST 164, ADC-6, OXA-91, non-CHDLs-producing): 0.5 µg/mL (≈ 2.14 µM)
MIC ([1]; Acinetobacter baumannii, MBC set, isolate Ab11, A. baumannii ST 239, ADC-2, OXA-51, non-CHDLs-producing): 1 µg/mL (≈ 4.29 µM)
MIC ([1]; Acinetobacter baumannii, MBC set, isolate Ab34, A. baumannii ST 2182, ADC-2, OXA-130, non-CHDLs-producing): 0.5 µg/mL (≈ 2.14 µM)
MIC ([1]; Acinetobacter baumannii, isolate Ab1, ST 164, ADC-6, OXA-91, in combinations ETZ fixed at 8 mg/L): 1 µg/mL
MIC ([1]; Acinetobacter baumannii, isolate Ab11, ST 239, ADC-2, OXA-51, in combinations ETZ fixed at 8 mg/L): 1 µg/mL
MIC ([1]; Acinetobacter baumannii, isolate Ab34, ST 2182, ADC-2, OXA-130, in combinations ETZ fixed at 8 mg/L): 0.5 µg/mL
MIC ([1]; Acinetobacter baumannii, isolate Ab38, ST 866, ADC-2, OXA-385, in combinations ETZ fixed at 8 mg/L): 1 µg/mL
MIC ([1]; Acinetobacter baumannii, isolate Ab40, ST 2176, ADC-2, OXA-64, in combinations ETZ fixed at 8 mg/L): 1 µg/mL
MIC ([1]; Acinetobacter baumannii, isolate Ab50, ST 2176, ADC-2, OXA-64, in combinations ETZ fixed at 8 mg/L): 1 µg/mL
MIC ([1]; Acinetobacter baumannii, isolate Ab57, ST 1470, ADC-58, OXA-106, in combinations ETZ fixed at 8 mg/L): 1 µg/mL
MIC ([1]; Acinetobacter baumannii, isolate Ab58, ST 6, ADC-2, OXA-94, in combinations ETZ fixed at 8 mg/L): 2 µg/mL
MIC ([1]; Acinetobacter baumannii, isolate Ab61, ST 1639, ADC-7, OXA-64, in combinations ETZ fixed at 8 mg/L): 2 µg/mL
MIC ([1]; Acinetobacter baumannii, isolate Ab62, ST 265, ADC-2, OXA-91, in combinations ETZ fixed at 8 mg/L): 1 µg/mL
MIC ([1]; Acinetobacter baumannii, isolate Ab67, ST 1, ADC-11, OXA-69, in combinations ETZ fixed at 8 mg/L): 1 µg/mL
MIC ([1]; Acinetobacter baumannii, isolate Ab79, ST 106, ADC-11, OXA-78, in combinations ETZ fixed at 8 mg/L): 1 µg/mL
MIC ([1]; Acinetobacter baumannii, isolate Ab80, ST 2182, ADC-6, OXA-208, in combinations ETZ fixed at 8 mg/L): 4 µg/mL
MIC ([1]; Acinetobacter baumannii, isolate Ab81, ST 25, ADC-79, OXA-64, in combinations ETZ fixed at 8 mg/L): 2 µg/mL
MIC ([1]; Acinetobacter baumannii, isolate Ab93, ST 25, ADC-79, OXA-64, in combinations ETZ fixed at 8 mg/L): 1 µg/mL
MIC ([1]; Acinetobacter baumannii, isolate Ab95, ST 582, ADC-5, OXA-317, in combinations ETZ fixed at 8 mg/L): 1 µg/mL
MIC ([1]; Acinetobacter baumannii, isolate Ab96, ST 582, ADC-5, OXA-317, in combinations ETZ fixed at 8 mg/L): 1 µg/mL
MIC ([1]; Acinetobacter baumannii, isolate Ab100, ST 145, ADC-58, OXA-343, in combinations ETZ fixed at 8 mg/L): 1 µg/mL
MIC ([1]; Acinetobacter baumannii, isolate Ab110, ST 1623, ADC-3, OXA-70, in combinations ETZ fixed at 8 mg/L): 1 µg/mL
MIC ([1]; Acinetobacter baumannii, isolate Ab112, ST 193, ADC-like, OXA-120, in combinations ETZ fixed at 8 mg/L): 0.5 µg/mL
MIC ([1]; Acinetobacter baumannii, isolate Ab124, ST 2176, ADC-2, OXA-64, in combinations ETZ fixed at 8 mg/L): 1 µg/mL
MIC ([1]; Acinetobacter baumannii, isolate Ab127, ST 2176, ADC-2, OXA-64, in combinations ETZ fixed at 8 mg/L): 2 µg/mL
MIC ([1]; Acinetobacter baumannii, isolate Ab128, ST 2176, ADC-2, OXA-64, in combinations ETZ fixed at 8 mg/L): 1 µg/mL
MIC ([1]; Acinetobacter baumannii, isolate Ab130, ST 32, ADC-79, OXA-100, in combinations ETZ fixed at 8 mg/L): 2 µg/mL
MIC ([1]; Acinetobacter baumannii, isolate Ab131, ST 687, ADC-like, OXA-208, in combinations ETZ fixed at 8 mg/L): 1 µg/mL
MIC ([1]; Acinetobacter baumannii, isolate Ab132, ST 1112, ADC-79, OXA-89, in combinations ETZ fixed at 8 mg/L): 2 µg/mL
MIC ([1]; Acinetobacter baumannii, isolate Ab136, ST 2183, ADC-like, OXA-66, in combinations ETZ fixed at 8 mg/L): 1 µg/mL
MIC ([1]; Acinetobacter baumannii, isolate Ab139, ST 54, ADC-like, OXA-365, in combinations ETZ fixed at 8 mg/L): 1 µg/mL
MIC ([1]; Acinetobacter baumannii, isolate Ab142, ST 1, ADC-like, OXA-69, in combinations ETZ fixed at 8 mg/L): 4 µg/mL
MIC ([1]; Acinetobacter baumannii, isolate Ab143, ST 1328, ADC-76, OXA-408, in combinations ETZ fixed at 8 mg/L): 2 µg/mL
MIC ([1]; Acinetobacter baumannii, isolate Ab149, ST 1112, ADC-6, OXA-407, in combinations ETZ fixed at 8 mg/L): 1 µg/mL
MIC ([1]; Acinetobacter baumannii, isolate Ab150, ST 2184, ADC-like, OXA-64, in combinations ETZ fixed at 8 mg/L): 2 µg/mL
MIC ([1]; Acinetobacter baumannii, isolate Ab152, ST 132, ADC-2, OXA-120, in combinations ETZ fixed at 8 mg/L): 1 µg/mL
MIC ([1]; Acinetobacter baumannii, isolate Ab158, ST 2034, ADC-2, OXA-217, in combinations ETZ fixed at 8 mg/L): 0.5 µg/mL
MIC ([1]; Acinetobacter baumannii, isolate Ab163, ST 132, ADC-2, OXA-120, in combinations ETZ fixed at 8 mg/L): 0.5 µg/mL
MIC ([1]; Acinetobacter baumannii, isolate Ab167, ST 1623, ADC-like, OXA-345, in combinations ETZ fixed at 8 mg/L): 0.5 µg/mL
MIC ([1]; Acinetobacter baumannii, isolate Ab168, ST 1470, ADC-75, OXA-402, in combinations ETZ fixed at 8 mg/L): 0.5 µg/mL
MIC ([1]; Acinetobacter baumannii, isolate Ab170, ST 2110, ADC-4, OXA-338, in combinations ETZ fixed at 8 mg/L): 1 µg/mL
MIC ([1]; Acinetobacter baumannii, isolate Ab172, ST 2185, ADC-5, OXA-217, in combinations ETZ fixed at 8 mg/L): 2 µg/mL
MIC ([1]; Acinetobacter baumannii, isolate Ab185, ST 2, ADC-26, OXA-66, in combinations ETZ fixed at 8 mg/L): 1 µg/mL
MIC ([1]; Acinetobacter baumannii, isolate Ab187, ST 105, ADC-2, OXA-430, in combinations ETZ fixed at 8 mg/L): 1 µg/mL
MIC ([1]; Acinetobacter baumannii, isolate Ab188, ST 203, ADC-6, OXA-217, PDC-1, in combinations ETZ fixed at 8 mg/L): 1 µg/mL
MIC ([1]; Acinetobacter baumannii, isolate Ab189, ST 1405, ADC-3, OXA-120, in combinations ETZ fixed at 8 mg/L): 0.5 µg/mL
MIC ([1]; Acinetobacter baumannii, isolate Ab190, ST 2186, ADC-6, OXA-413, in combinations ETZ fixed at 8 mg/L): 0.5 µg/mL
MIC ([1]; Acinetobacter baumannii, isolate Ab193, ST 164, ADC-6, OXA-91, in combinations ETZ fixed at 8 mg/L): 0.5 µg/mL
MIC ([1]; Acinetobacter baumannii, isolate Ab195, ST 1, ADC-11, OXA-69, in combinations ETZ fixed at 8 mg/L): 1 µg/mL
MIC ([1]; Acinetobacter baumannii, isolate Ab200, ST 1336, ADC-2, OXA-51, in combinations ETZ fixed at 8 mg/L): 0.5 µg/mL
MIC ([1]; Acinetobacter baumannii, isolate Ab202, ST 1, ADC-11, OXA-69, in combinations ETZ fixed at 8 mg/L): 1 µg/mL
MIC ([1]; Acinetobacter baumannii, isolate Ab203, ST 221, ADC-6, OXA-88, in combinations ETZ fixed at 8 mg/L): 0.5 µg/mL
MIC ([1]; Acinetobacter baumannii, isolate Ab206, ST 2187, ADC-58, OXA-69, in combinations ETZ fixed at 8 mg/L): 0.5 µg/mL
MIC ([1]; Acinetobacter baumannii, isolate Ab209, in combinations ETZ fixed at 8 mg/L): 0.5 µg/mL
MIC ([1]; Acinetobacter baumannii, isolate Ab213, in combinations ETZ fixed at 8 mg/L): 0.5 µg/mL
MIC ([1]; Acinetobacter baumannii, isolate Ab218, in combinations ETZ fixed at 8 mg/L): 1 µg/mL
MIC ([1]; Acinetobacter baumannii, isolate Ab220, in combinations ETZ fixed at 8 mg/L): 0.5 µg/mL
MIC50 [1, 3]: 1 µg/mL
MIC90 [1, 3]: 2 µg/mL
cell morphology [2]: long filaments
